From ChEMBL document CHEMBL4177594, “Design, synthesis, and evaluation of salicyladimine derivatives as multitarget-directed ligands against Alzheimer's disease” (Bioorg Med Chem, 2017)
Activity calls are given as the source filed them. No cut-off for these calls is given here.

Tests used:
[1] = target: Amyloid-beta precursor protein (Homo sapiens) (UniProt P05067); assay: Inhibition of self-induced aggregation of amyloid beta (1 to 42 residues) (unknown origin) at 25 uM incubated for 48 hrs by Thioflavin T fluorescence assay relative to control
[2] = target: T1, Amine oxidase [flavin-containing] B (Homo sapiens, UniProt P27338); assay: Inhibition of human MAO-B using p-tyramine as substrate preincubated for 15 mins followed by substrate addition measured after 20 mins by fluorescence-based Amplex Red MAO assay
T1 sequence (P27338 whole entry): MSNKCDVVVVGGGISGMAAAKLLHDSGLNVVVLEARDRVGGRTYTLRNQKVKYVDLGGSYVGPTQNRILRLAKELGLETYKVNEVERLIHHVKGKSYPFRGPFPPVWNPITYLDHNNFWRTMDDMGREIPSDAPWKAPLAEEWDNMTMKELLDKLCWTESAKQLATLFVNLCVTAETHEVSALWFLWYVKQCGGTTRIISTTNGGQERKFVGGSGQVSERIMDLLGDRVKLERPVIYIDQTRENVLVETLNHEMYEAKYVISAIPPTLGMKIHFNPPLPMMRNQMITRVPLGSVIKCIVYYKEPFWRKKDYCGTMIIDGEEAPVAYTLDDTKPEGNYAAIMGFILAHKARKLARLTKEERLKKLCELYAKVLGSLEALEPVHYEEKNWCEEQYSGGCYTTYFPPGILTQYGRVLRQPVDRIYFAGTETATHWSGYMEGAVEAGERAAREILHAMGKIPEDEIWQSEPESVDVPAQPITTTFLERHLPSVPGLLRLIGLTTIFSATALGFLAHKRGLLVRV

Homo sapiens = species: Homo sapiens; assay: Selectivity index, ratio of IC50 for human MAO-A to IC50 for human MAO-B
[3] = Antioxidant activity assessed as DPPH radical scavenging activity after 30 mins; assay type: functional
[4] = target: T2, Amine oxidase [flavin-containing] A (Homo sapiens, UniProt P21397); assay: Inhibition of human MAO-A at 200 uM using p-tyramine as substrate preincubated for 15 mins followed by substrate addition measured after 20 mins by fluorescence-based Amplex Red MAO assay
T2 sequence (P21397 whole entry): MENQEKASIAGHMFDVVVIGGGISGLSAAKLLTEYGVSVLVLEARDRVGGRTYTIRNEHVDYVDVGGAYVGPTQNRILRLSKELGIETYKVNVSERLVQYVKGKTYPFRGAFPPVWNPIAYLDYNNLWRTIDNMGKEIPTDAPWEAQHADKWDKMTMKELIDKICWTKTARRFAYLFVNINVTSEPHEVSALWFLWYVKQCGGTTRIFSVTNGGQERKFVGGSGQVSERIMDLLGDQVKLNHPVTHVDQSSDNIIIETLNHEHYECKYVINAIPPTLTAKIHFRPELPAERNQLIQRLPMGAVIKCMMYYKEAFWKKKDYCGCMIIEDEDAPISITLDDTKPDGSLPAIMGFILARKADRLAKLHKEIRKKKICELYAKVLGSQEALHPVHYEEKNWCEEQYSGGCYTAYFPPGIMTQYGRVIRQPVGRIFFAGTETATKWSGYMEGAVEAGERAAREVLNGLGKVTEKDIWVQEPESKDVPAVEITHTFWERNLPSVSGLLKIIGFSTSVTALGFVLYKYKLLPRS

PC-12 [5] = assay: Cytotoxicity against rat PC12 cells at 25 uM after 24 hrs by MTT assay; assay type: cell-based; settings: pc-12, 24 h
in vitro = assay: in vitro; design: dose or concentration left out as unconfirmed; settings: PAMPA
Description: Permeability of the compound at 100 mg/ml after 16 hrs by BBB-PAMPA method

[6] = Antioxidant activity assessed as ABTS radical scavenging activity at 25 uM after 6 mins; assay type: functional
PC-12 [7] = assay: Neuroprotective activity against H2O2-induced cytotoxicity in rat PC12 cells assessed as increase in cell viability at 25 uM preincubated for 24 hrs followed by H2O2 addition and measured after 24 hrs by MTT assay; assay type: functional, cell-based
[8] = target: T2, Amine oxidase [flavin-containing] A; assay: Inhibition of human MAO-A using p-tyramine as substrate preincubated for 15 mins followed by substrate addition measured after 20 mins by fluorescence-based Amplex Red MAO assay

Chain of Amyloid-beta precursor protein (Homo sapiens) (P05067 whole entry, the tested form may be a part): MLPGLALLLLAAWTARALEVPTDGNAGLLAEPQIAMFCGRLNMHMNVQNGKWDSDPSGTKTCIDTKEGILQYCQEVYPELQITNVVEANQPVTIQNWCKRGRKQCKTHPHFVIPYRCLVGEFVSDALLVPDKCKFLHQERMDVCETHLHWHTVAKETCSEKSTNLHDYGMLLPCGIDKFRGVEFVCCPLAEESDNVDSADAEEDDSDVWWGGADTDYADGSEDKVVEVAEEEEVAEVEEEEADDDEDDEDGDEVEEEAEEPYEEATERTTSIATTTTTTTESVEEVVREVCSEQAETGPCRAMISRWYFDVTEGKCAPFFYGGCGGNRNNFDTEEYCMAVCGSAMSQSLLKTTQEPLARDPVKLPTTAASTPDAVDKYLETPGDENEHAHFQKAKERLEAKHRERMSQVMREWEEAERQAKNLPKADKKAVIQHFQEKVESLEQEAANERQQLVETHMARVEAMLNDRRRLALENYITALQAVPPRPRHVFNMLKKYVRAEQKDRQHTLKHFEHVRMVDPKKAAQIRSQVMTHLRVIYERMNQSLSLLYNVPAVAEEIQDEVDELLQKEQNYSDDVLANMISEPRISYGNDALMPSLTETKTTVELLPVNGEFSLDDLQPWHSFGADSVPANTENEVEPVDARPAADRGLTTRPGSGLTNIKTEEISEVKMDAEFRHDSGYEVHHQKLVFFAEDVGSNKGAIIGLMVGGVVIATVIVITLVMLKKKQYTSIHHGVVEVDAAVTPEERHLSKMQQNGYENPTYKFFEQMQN

SMILES | inhibition [1] [%] | IC50 [2] [µM] | Ratio IC50 (Homo sapiens) | IC50 [3] [µM] | inhibition (INH) [4] | Activity (PC-12 [5]) | Papp at 16 h (in vitro) [×10⁻⁶ cm/s] | Activity (umolequiv/umol) [6] | Activity (PC-12 [7]) | IC50 [8] [µM]
O=[N+]([O-])c1ccc(O)c(/C=N/c2ccc(OCc3ccccc3)cc2)c1 | 70.2 | 60.9 | > 1.64 | > 200 | Not Active | Non-Toxic | – | – | – | –
COc1ccc(/C=N/c2ccc(OCc3ccccc3)cc2)c(O)c1 | 69.5 | 23.6 | > 4.24 | > 200 | Not Active | Non-Toxic | – | – | – | –
Oc1ccc(F)cc1/C=N/c1ccc(OCc2ccccc2)cc1 | 84.4 | 15.3 | > 6.54 | > 200 | Not Active | Non-Toxic | – | – | – | –
Oc1ccccc1/C=N/c1ccc(OCc2ccccc2)cc1 | 63.3 | 25.1 | > 3.98 | > 200 | Not Active | Non-Toxic | – | – | – | –
CCn1cc(C(=O)O)c(=O)c2cc(F)c(N3CCNC(C)C3)c(F)c21 (configuration not stated) [LOMEFLOXACIN] | – | – | – | – | – | – | 1.59 | – | – | –
Cc1ccc(/C=N/c2ccc(OCc3ccccc3)cc2)c(O)c1 | 60.1 | 24.4 | > 4.09 | > 200 | Not Active | Non-Toxic | – | – | – | –
Cc1cccc(/C=N/c2ccc(OCc3ccccc3)cc2)c1O | 53.7 | 15.5 | > 6.47 | > 200 | Not Active | Non-Toxic | – | – | – | –
Oc1ccc(/C=N/c2ccc(OCc3ccccc3)cc2)c(O)c1 | 59.8 | 6.78 | > 14.8 | > 200 | Not Active | Non-Toxic | – | – | – | –
Oc1ccc(Cl)cc1/C=N/c1ccc(OCc2ccccc2)cc1 | 59.6 | 24.8 | > 4.03 | > 200 | Not Active | Non-Toxic | – | – | – | –
Oc1ccc(Br)cc1/C=N/c1ccc(OCc2ccccc2)cc1 | 54.3 | 31.7 | > 3.15 | > 200 | Not Active | Non-Toxic | – | – | – | –
C[C@]12CC[C@@H]3c4ccc(O)cc4CC[C@H]3[C@@H]1CC[C@@H]2O [ESTRADIOL] | – | – | – | – | – | – | 9.17 | – | – | –
Oc1cc(O)c(/C=N/c2ccc(OCc3ccccc3)cc2)c(O)c1 | 88.5 | 10.1 | > 9.86 | 23.9 | Not Active | Non-Toxic | – | 0.69 | inactive | –
Oc1cccc(/C=N/c2ccc(OCc3ccccc3)cc2)c1O | 72.5 | 6.87 | 1.66 | 13.3 | – | Non-Toxic | – | 0.6 | Active | 11.4
Cc1ccc(O)c(/C=N/c2ccc(OCc3ccccc3)cc2)c1 | 61.9 | 24.6 | > 4.06 | > 200 | Not Active | Non-Toxic | – | – | – | –
COc1ccc(O)c(/C=N/c2ccc(OCc3ccccc3)cc2)c1 | 56.6 | 10.7 | > 9.34 | > 200 | Not Active | Non-Toxic | – | – | – | –
Oc1ccc(O)c(/C=N/c2ccc(OCc3ccccc3)cc2)c1 | 49.2 | 1.23 | 15.3 | 21.3 | – | Non-Toxic | – | 0.97 | Active | 18.8
Oc1ccc(/C=C/c2cc(O)cc(O)c2)cc1 [RESVERATROL] | – | – | – | 82.7 | – | – | – | 1.57 | – | –
Oc1c(Br)cc(Br)cc1/C=N/c1ccc(OCc2ccccc2)cc1 | 66.7 | 10.8 | > 9.23 | > 200 | Not Active | Non-Toxic | – | – | – | –
COc1cccc(/C=N/c2ccc(OCc3ccccc3)cc2)c1O | 53.4 | 6.5 | > 15.4 | > 200 | Not Active | Non-Toxic | – | – | – | –
Oc1ccc2ccccc2c1/C=N/c1ccc(OCc2ccccc2)cc1 | 73.1 | 19.2 | > 5.22 | > 200 | Not Active | Non-Toxic | – | – | – | –
